In patent publication US20170253607A1, “LONG-ACTING HIV PROTEASE INHIBITOR” (Shionogi & Co., Ltd., priority 2014, published 2017):

How the values were obtained:
[1] = Evaluation of total body clearance (CLtot), intravenous administration; assay type: in vivo, Sprague-Dawley (SD); details: rat (SD), intravenous administration 0.5-10 mg/kg; CLtot = dose/AUC
Procedure, shortened: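 Compounds given as a single tail-vein injection at 0.5-10 mg/kg (n=2-3), dose varying by compound. Plasma sampled at scheduled times and measured by LC/MS/MS; CLtot derived as dose divided by AUC from pharmacokinetic analysis.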

[2] = Protein binding test (equilibrium dialysis, unbound ratio fu in serum); assay type: in vitro ADME; details: rat serum, equilibrium dialysis 24 hours, 37° C., 2 μg/mL
Procedure, shortened: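 Compound at 2 μg/mL in serum was dialysed against PBS for 24 hours at 37° C. Both sides were quantified by LC/MS/MS, and fu was taken as the PBS concentration divided by the serum concentration.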

HIV-1 PR = HIV-1 PR (Human immunodeficiency virus type 1 group M subtype B, UniProt P04585); assay: HIV-protease inhibitory activity assay (FRET peptide substrate); assay type: biochemical; details: Test Example 1
Procedure, shortened: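 Fluorescence recovery at ex 485/em 535 nm reports cleavage of a quenched FRET peptide (2 μmol/L final) by 0.83 ng enzyme over 60 minutes at room temperature. Buffer was NaAc pH 4.8 with NaCl, EDTA, DTT and Tween 20. IC50 values came from four-parameter logistic regression of % inhibition.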

Row | SMILES | rat_CLt [1] | rat_fu [2] | IC50 (HIV-1 PR)
1 | Cc1cc(OCCN(CC(O)C(Cc2ccccc2)NC(=O)OC2COC3(C)OCCC23)S(=O)(=O)c2ccc3ncsc3c2)ccc1-c1sc2c(c1C(=O)O)CC(C)(C)CC2 (stereo not drawn) [Compound I-166] | 0.194 mL/min/kg | <0.1% | 8.83 nM
2 | COc1ccc(S(=O)(=O)N(CC(C)C)CC(O)C(Cc2ccc(N(C)Cc3cc(C(F)(F)F)ccc3-n3nc4c(c3C(=O)O)CC(C)(C)CC4)cc2)NC(=O)OC2COC3(C)OCCC23)cc1 (stereo not drawn) [Compound I-379] | 0.173 mL/min/kg | <0.1% | 4.42 nM
3 | COc1ccc(S(=O)(=O)N(CC(C)C)CC(O)C(Cc2ccc(N(Cc3ccccc3)Cc3sc4c(c3C(=O)O)CC(C)(C)CC4)cc2)NC(=O)OC2COC3(C)OCCC23)cc1 (stereo not drawn) [Compound I-47] | 3.51 mL/min/kg | <0.1% | 5.41 nM
4 | COc1ccc(S(=O)(=O)N(CC2CCCC2)CC(O)C(Cc2ccc(OCc3ccccc3-n3nc4c(c3C(=O)O)CC(C(C)(C)C)CC4)cc2)NC(=O)OC2COC3(C)OCCC23)cc1 (stereo not drawn) [Compound I-145] | 1.29 mL/min/kg | <0.1% | 0.81 nM
5 | COc1ccc(S(=O)(=O)N(CC(C)C)CC(O)C(Cc2ccc(NC3Cc4cccc(-c5sc6c(c5C(=O)O)CC(C)(C)CC6)c4C3)cc2)NC(=O)OC2COC3(C)OCCC23)cc1 (stereo not drawn) [Compound I-242] | 0.408 mL/min/kg | <0.1% | 3.11 nM
6 | COc1ccc(S(=O)(=O)N(CC(C)C)CC(O)C(Cc2ccc(NCc3ccc4ccccc4c3-c3sc4c(c3C(=O)O)CC(C)(C)CC4)cc2)NC(=O)OC2COC3OCCC23)cc1 (stereo not drawn) [Compound I-851] | 0.298 mL/min/kg | <0.1% | 2.57 nM
7 | COc1ccc(S(=O)(=O)N(CC(C)C)CC(O)C(Cc2ccc(CN(C)c3ccc(-c4sc5c(c4C(=O)O)CC(C)(C)CC5)c(C)c3)cc2)NC(=O)OC2COC3(C)OCCC23)cc1 (stereo not drawn) [Compound I-376] | 0.485 mL/min/kg | <0.1% | 9.86 nM
8 | CC1(C)CCc2sc(-c3ccccc3COc3ccc(CC(NC(=O)OC4COC5(C)OCCC45)C(O)CN(CC(F)F)S(=O)(=O)c4ccc5ncsc5c4)cc3)c(C(=O)O)c2C1 (stereo not drawn) [Compound I-147] | 1.68 mL/min/kg | <0.1% | 1.01 nM
9 | COc1ccc(S(=O)(=O)N(CC(C)C)C[C@@H](O)[C@H](Cc2ccc(OCc3ccccc3C(=O)Nc3sc4c(c3C(=O)O)CC(C)(C)CC4)cc2)NC(=O)O[C@H]2CO[C@@]3(C)OCC[C@@H]23)cc1 [Compound I-268] | 0.0553 mL/min/kg | <0.1% | 4.46 nM
10 | COc1ccc(S(=O)(=O)N(CC(C)C)CC(O)C(Cc2ccc(N(C)CCCc3ccccc3-c3sc4c(c3C(=O)O)CC(C)(C)CC4)cc2)NC(=O)OC2COC3(C)OCCC23)cc1 (stereo not drawn) [Compound I-240] | 4.5 mL/min/kg | <0.1% | 2.02 nM
11 | COc1ccc(S(=O)(=O)N(CC(C)C)C[C@@H](O)[C@H](Cc2ccc(O[C@@H]3CCN(c4ccccc4-c4sc5c(c4C(=O)O)CC(C)(C)CC5)C3)cc2)NC(=O)O[C@H]2CO[C@@]3(C)OCC[C@@H]23)cc1 [Compound I-6] | 1.22 mL/min/kg | <0.1% | 1.36 nM
12 | CC(C)CN(CC(O)C(Cc1ccc(OCc2ccccc2-c2sc3c(c2C(=O)O)CC(C)(C)CC3)cc1)NC(=O)OC1COC2(C)OCCC12)S(=O)(=O)c1ccc2c(c1)OCO2 (stereo not drawn) [Compound I-132] | 0.376 mL/min/kg | <0.1% | 2.66 nM
13 | COc1ccc(S(=O)(=O)N(CC(C)C)C[C@@H](O)[C@H](Cc2ccc(OCc3ccccc3-c3sc4c(c3C(=O)O)CC(C)(C)CC4)cc2)NC(=O)O[C@H]2CO[C@@]3(C)OCC[C@@H]23)cc1 [Compound I-1] | 0.542 mL/min/kg | <0.1% | 1.29 nM
14 | COc1ccc(S(=O)(=O)N(CC2CCCC2)CC(O)C(Cc2ccc(OCc3nc(C)sc3-c3sc4c(c3C(=O)O)CC(C)(C)CC4)cc2)NC(=O)OC2COC3(C)OCCC23)cc1 (stereo not drawn) [Compound I-248] | 2.47 mL/min/kg | <0.1% | 2.26 nM
15 | COc1ccc(S(=O)(=O)N(CC(C)C)C[C@@H](O)[C@H](Cc2ccc(NC3CN(c4ccccc4-c4sc5c(c4C(=O)O)CC(C)(C)CC5)C3)cc2)NC(=O)O[C@H]2CO[C@@]3(C)OCC[C@@H]23)cc1 [Compound I-228] | 0.144 mL/min/kg | <0.1% | 3.98 nM
16 | COc1ccc(S(=O)(=O)N(CC(C)C)CC(O)C(Cc2ccc(OCc3ccccc3-c3ccc(Oc4ccc(-c5c(O)c6ccc(Cl)cc6[nH]c5=O)cc4)cc3)cc2)NC(=O)OC2COC3OCCC23)cc1 (stereo not drawn) [Compound I-847] | 6 mL/min/kg | <0.1% | 3.38 nM
17 | COc1ccc(S(=O)(=O)N(CC(C)C)CC(O)C(Cc2ccc(N3CCC(Oc4ccccc4-c4sc5c(c4C(=O)O)CC(C)(C)CC5)C3)cc2)NC(=O)OC2COC3(C)OCCC23)cc1 (stereo not drawn) [Compound I-235] | 4.05 mL/min/kg | <0.1% | 3.56 nM
18 | COc1ccc(S(=O)(=O)N(CC(C)C)CC(O)C(Cc2ccc(OCc3ccccc3-c3sc4c(c3C(=O)O)CC(C)(C)CC4)cc2)NC(=O)OC2CC3OCC(O)C3C2)cc1 (stereo not drawn) [Compound I-29] | 1.54 mL/min/kg | <0.1% | 1.41 nM
19 | COc1ccc(S(=O)(=O)N(CC(C)C)C[C@@H](O)[C@H](Cc2ccc(OCc3ccccc3-c3sc4c(c3C(=O)O)CC(C)(C)CC4)cc2)NC(=O)O[C@H]2CCO[C@H]3OCC[C@H]32)cc1 [Compound I-908] | 0.63 mL/min/kg | <0.1% | 1.21 nM
20 | COc1ccc(S(=O)(=O)N(CC(C)C)CC(O)C(Cc2ccc(OCC3=C(c4sc5c(c4C(=O)O)CC(C)(C)CC5)CCCC3)cc2)NC(=O)OC2COC3(C)OCCC23)cc1 (stereo not drawn) [Compound I-243] | 0.477 mL/min/kg | <0.1% | 4.24 nM
21 | COc1ccc(S(=O)(=O)N(CC(C)C)CC(O)C(Cc2ccc(NCc3ccccc3-c3sc4c(c3C(=O)O)CC(C)(C)CC4(C)C)cc2)NC(=O)OC2COC3(C)OCCC23)cc1 (stereo not drawn) [Compound I-418] | 1.49 mL/min/kg | <0.1% | 2.21 nM
22 | COc1ccc(S(=O)(=O)N(CC(C)C)CC(O)C(Cc2ccc(NCc3ccc(-c4sc5c(c4C(=O)O)CC(C)(C)CC5)cc3)cc2)NC(=O)OC2COC3(C)OCCC23)cc1 (stereo not drawn) [Compound I-253] | 4.65 mL/min/kg | <0.1% | 2.59 nM
